Laboratory results as given in patent US20240409582A1, “DESIGN AND CHARACTERIZATION OF INHIBITORY PEPTIDES (IPEPS) DERIVED FROM OF MIEN 1 PROTEIN SEQUENCE” (priority 2022, published 2024).
Entries after “also recorded” stand apart in the source; their conditions may differ.

Tests used:
[1] = test system: focal adhesion kinase (FAK) phosphorylation at tyrosine 925; test: Western blot, phosphorylation of FAK; type: cell-based, human; settings: MDA-MB-231 cell lysates, 48 h
Experimental: (§1) Western blot analysis: MDA-MB-231 cells and DU-145 cells were treated with all the test peptides for 48 h. Cell lysates were prepared, and cellular protein was extracted using RIPA lysis buffer (Millipore). […] After blocking with 5% bovine serum albumin, the membrane was incubated with the primary antibodies specific for various proteins at 4° C. overnight. After primary antibody incubation, membrane was washed thrice in TBS containing 0.1% Tween-20 for 5 min each and then incubated with appropriate HRP-conjugated secondary antibody. The immunoreactive protein bands were visualized by enhanced chemiluminescence (ECL) on Alpha Innotech chemiluminescent detection system.

[2] = test system: EMT genes (E-cadherin, N-Cadherin, SLUG, SNAIL, MMP-9, Zeb-1) in DU-145 prostate cancer cells; test: RT-qPCR of EMT genes in DU-145 cells; type: cell-based, human; settings: DU-145, qPCR
Experimental: RT-qPCR Method: The changes in the mRNA levels of various genes in response to the peptide treatment in DU-145 cells were examined. Briefly, total RNA was purified using the TRIzol reagent (Invitrogen) according to the manufacturer's instructions. 1 μg of total RNA was reverse transcribed into cDNA using the Superscript-III First-Strand Synthesis kit (Invitrogen) following the manufacturer's protocol. RT-qPCR was performed with the SYBR Green Master Mix (Invitrogen) in a Realplex2 Mastercycler ep gradient S thermal cycler (Eppendorf). The PCR program followed for all the primers was an activation at 95° C. for 15 min, followed by 40 cycles of 95° C. for 30 sec, 54° C. for 1 min, and 72° C. for 45 sec. The reaction was finally put to hold at 4 C. The primers were synthesized by Integrated DNA Technologies (Coralville, IA and are described in Table 2. 18S was used as the reference genes for the mRNA levels. Fold-expression was calculated according to the ΔΔCt method.

[3] = test system: MDA-MB-231 orthotopic tumors; test: Orthotopic breast cancer model in athymic nude mice; type: in vivo; settings: for tumor growth: 30 mg/kg peritumoral every alternate day, 30 days; for decrease of tumor volume: 30 mg/kg peritumoral on alternate days, vs control
Experimental: Orthotropic Breast Cancer Models in Mice: All in vivo experiments were conducted on 6-8-week-old athymic nude mice (Charles River). MDA-M13-231 (1.5×10^6) cells were suspended in 50% Matrigel in DMEM high glucose (vol/vol) on ice for mammary fat pad injection. The control group received the same volume of matrigel (Corning Cat #356234) and media but no cells. […] Tumor volume was measured using a digital Vernier caliper on alternate days. The tumor volumes (mm3) were calculated using the following formula V=(W2×L)/2 (V, tumor volume: W, tumor width; L, tumor length). Mice were euthanized when rumors in the control group reached˜10% of body weight. At the end of the experiment, all animals were weighed, euthanized, and liver, lung, spleen, kidney brain, and tumors were harvested. The weights of tumors and organs were recorded.

MDA-MB-231 cells [4] = test: Wound healing assay; type: cell-based, human; settings: MDA-MB-231, dose-dependent, sub-IC50 concentrations, 18 h
Experimental: Wound healing assay: The wound-healing assay on highly metastatic MDA-MB-231 cells was performed to check the anti-migratory activity of the peptides. MDA-MB-231 cells were plated in a six-well tissue culture plate to form a sub-confluent cell monolayer. The monolayer was scraped with a sterile 200 μL pipette tip in the middle of the culture well to produce equal-sized wounds. Cell debris was removed and the scratched cell monolayer was supplemented with fresh media containing sub-IC 50 concentrations of MIEN1-derived peptide and its analogs. Wound areas were measured by ImageJ software after 18 h and were compared to control.

[5] = test system: phosphorylation of src at tyrosine 416; test: Western blot, phosphorylation of src; type: cell-based, human; settings: MDA-MB-231, 48 h
Experimental: as §1

[6] = test system: phosphorylated cofilin (inactive cofilin); test: Western blot, phosphorylated cofilin; type: cell-based, human; settings: whole cell lysates of MDA-MB-231 and DU-145 cells, 48 h
Experimental: as §1

MDA-MB-231 cells [7] = test: Transwell invasion assay; type: cell-based, human; settings: MDA-MB-231, dose-dependent
Experimental: Transwell Invasion Assay: The capacity of human breast cancer MDA-MB-231 cells to pass through a polyethylene terephthalate membrane (6.4 mm diameter; 8 µm pore size) was measured using transwell chambers (Corning Life Sciences) in 24-well tissue culture plates. The MDA-MB-231 were pre-treated with the increasing concentrations of each peptide for 24 h in a 0.1% FBS containing DMEM media. Next day, cells were dislodged by trypsin and 40,000 cells/well were resuspended in a serum-free DMEM containing the second treatment of peptides and were added to the upper chamber, and 10% FBS containing media was added to the bottom chambers. After incubation for another 24 h, non-invasive cells on the upper surface of the membrane were carefully removed with a cotton swab; cells were fixed in 4% paraformaldehyde solution (Affymetrix USB) for 15 minutes followed by a PBS wash; the membrane insert was then fixed with ice-cold methanol for 20 minutes followed by staining with 0.25% crystal violet. The numbers of invaded cells were counted in random fields in Image J, and results were expressed as an average number of invaded cells compared with control.

MDA-MB-231 cells [8] = test: RNA-seq transcriptome of MDA-MB-231 cells after peptide treatment; type: cell-based, human; settings: MDA-MB-231, RNA-seq
Experimental: RNeasy Mini Kit (Cat #74106, Qiagen,) was used for RNA isolation and all procedures were performed according to the manufacturer's specification. The purification included 15 minutes of in-column DNase I (Cat #79254, Qiagen,) treatment. […] The quality was controlled using Agilent Tapestation and Qubit 4 fluorometer. Sequencing was on an illumina NextSeq 550 system as per the recommended protocol. Raw sequencing files were adapter trimmed and quality filtered using fastp. The reads were mapped to hg38 reference genome using Hisat2. Differential gene expression analysis was performed using Deseq2.

| Substance | phosphorylation of FAK at tyrosine 925 [1] | gene expression of SLUG, SNAIL, MMP 9, N-Cadherin and Zeb-1 [2] | gene expression of epithelial marker E-Cadherin [2] | tumor growth [3] | decrease of tumor volume [3] [%] | number of migrated cells in the wound healing assay (MDA-MB-231 cells [4]) | phosphorylation of src at tyrosine 416 [5] | phosphorylated cofilin [6] | number of invaded cells (MDA-MB-231 cells [7]) | phosphorylation of FAK at tyrosine 925 ([1]; listed as LA31K) | response as per RECIST ([3]; 30 mg/kg, human tumor equivalent) | phosphorylation of src at tyrosine 416 ([5]; listed as LA31K) | changes in the transcriptome (MDA-MB-231 cells [8]) |
| --- | --- | --- | --- | --- | --- | --- | --- | --- | --- | --- | --- | --- | --- |
| RPPCVIL [RP-7] | inhibited; also recorded: marked inhibition | significant decrease | concomitant increase | decreased tumor growth significantly | 37.43 | significantly reduced number of migrated cells | inhibited; also recorded: marked inhibition | accumulation of phosphorylated cofilin | considerable decrease in the number of invaded cells | – | – | – | – |
| LAIAVK [LA3IK] | inhibited | significant decrease | concomitant increase | decreased tumor growth significantly | 75.39 | significantly reduced number of migrated cells | inhibited | accumulation of phosphorylated cofilin | considerable decrease in the number of invaded cells | marked inhibition | partial response | marked inhibition | inhibited genes responsible for migration and cancer progression |
